In this assay the target is ADORA3 (Homo sapiens (Human), UniProt P0DMS8). Nature of the assay: Intracellular calcium release assay (FLIPR). It counts as cell-based. The settings on record: for EC50: CHO-K1 cells, Fluo-4, top concentration 10 μM, read-out: Cell Calcium Assay EC50; for Cell Calcium Efficacy (%): percentage of the response to NECA. In short, it runs like this: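 Cells stably expressing ADORA3 (20,000/well, 16–20 h) were loaded with Fluo-4 Direct plus 2.5 mM probenecid for 50 min at 37 °C and 10 min at RT. Compounds (10-point, 3-fold series) were added on FLIPR and the Max–Min fluorescence taken. Activation % was set against high-agonist and DMSO wells, with variable-slope EC50 and efficacy relative to NECA.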
In general terms: Calcium assays in cells follow changes in intracellular calcium, usually with a dye or a luminescent sensor.

Chain of ADORA3 (P0DMS8 whole entry): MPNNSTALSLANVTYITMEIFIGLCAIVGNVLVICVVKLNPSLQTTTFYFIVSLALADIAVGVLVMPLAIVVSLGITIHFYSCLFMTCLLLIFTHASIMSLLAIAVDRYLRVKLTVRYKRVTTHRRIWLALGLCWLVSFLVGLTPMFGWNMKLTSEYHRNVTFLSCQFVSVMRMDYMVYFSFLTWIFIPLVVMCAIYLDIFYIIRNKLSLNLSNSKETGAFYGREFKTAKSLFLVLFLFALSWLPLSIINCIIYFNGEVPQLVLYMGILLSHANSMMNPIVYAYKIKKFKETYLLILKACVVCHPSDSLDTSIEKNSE

In general, EC50 refers to the concentration at which the effect is half-maximal. In the case of `Cc1c(Cl)nc2c(ncn2[C@H]2[C@H](O)[C@H](O)[C@@H]3C[C@@H]32)c1NCC(F)F` [Compound 60, (1R,2R,3S,4R,5S)-4-(5-chloro-7-((2,2-difluoroethyl)amino)-6-methyl-3H-imidazo[4,5-b]pyridin-3-yl)bicyclo[3.1.0]hexane-2,3-diol], the EC50 was over 10000 nM and the “Cell Calcium Efficacy (%)” value is recorded as 10%.
In the same order, the values of `O[C@@H]1[C@H](O)[C@@H]2C[C@@H]2[C@H]1n1cnc2c(NCC(F)F)nc(Cl)nc21` [Compound 35, (1R,2R,3S,4R,5S)-4-(2-chloro-6-((2,2-difluoroethyl)amino)-9H-purin-9-yl)bicyclo[3.1.0]hexane-2,3-diol] are 4.7 nM and 46.8%.
In the same order, the values of `O[C@@H]1[C@H](O)[C@@H]2C[C@@H]2[C@H]1n1cnc2c(NCC(F)F)cc(Cl)nc21` [Compound 40, (1R,2R,3S,4R,5S)-4-(5-chloro-7-((2,2-difluoroethyl)amino)-3H-imidazo[4,5-b]pyridin-3-yl)bicyclo[3.1.0]hexane-2,3-diol] are 6.1 nM and 55.9%.
In the same order, the values of `CCNc1cc(C#CC2CC2)nc2c1ncn2[C@H]1[C@H](O)[C@H](O)[C@@H]2C[C@@H]21` [Compound 46, (1R,2R,3S,4R,5S)-4-(5-(cyclopropylethynyl)-7-(ethylamino)-3H-imidazo[4,5-b]pyridin-3-yl)bicyclo[3.1.0]hexane-2,3-diol] are at least 10000 nM and 4.8%.

The values above are taken from patent US20230416245A1, “ADENOSINE ANALOGS FOR THE TREATMENT OF DISEASE” (BIOINTERVENE, INC., priority 2020, published 2023).
